From ChEMBL document CHEMBL1129747, “Head group analogs of arachidonylethanolamide, the endogenous cannabinoid ligand” (J Med Chem, 1996)

How the values were obtained:
[1] = biological target: Cannabinoid receptor 1 (Rattus norvegicus, UniProt P20272); assay: Displacement of [3H]CP-55940 from Cannabinoid receptor 1 of rat forebrain membranes; assay type: cell membranes, Membrane
[2] = biological target: Cannabinoid receptor 2 (Mus musculus, UniProt P47936); assay: Compound was evaluated for its binding affinity for mouse spleen Cannabinoid receptor 2
Sequence of Cannabinoid receptor 2 (P47936 whole entry): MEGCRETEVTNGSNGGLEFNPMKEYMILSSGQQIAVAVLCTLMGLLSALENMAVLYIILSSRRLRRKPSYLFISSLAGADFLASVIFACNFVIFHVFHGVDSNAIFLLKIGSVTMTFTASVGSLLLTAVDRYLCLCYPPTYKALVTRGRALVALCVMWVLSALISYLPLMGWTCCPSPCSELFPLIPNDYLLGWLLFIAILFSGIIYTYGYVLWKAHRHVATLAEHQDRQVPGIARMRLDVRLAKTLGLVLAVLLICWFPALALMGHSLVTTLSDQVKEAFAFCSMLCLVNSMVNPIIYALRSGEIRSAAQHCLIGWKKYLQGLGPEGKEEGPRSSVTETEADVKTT

Sequence of Cannabinoid receptor 1 (P20272 whole entry): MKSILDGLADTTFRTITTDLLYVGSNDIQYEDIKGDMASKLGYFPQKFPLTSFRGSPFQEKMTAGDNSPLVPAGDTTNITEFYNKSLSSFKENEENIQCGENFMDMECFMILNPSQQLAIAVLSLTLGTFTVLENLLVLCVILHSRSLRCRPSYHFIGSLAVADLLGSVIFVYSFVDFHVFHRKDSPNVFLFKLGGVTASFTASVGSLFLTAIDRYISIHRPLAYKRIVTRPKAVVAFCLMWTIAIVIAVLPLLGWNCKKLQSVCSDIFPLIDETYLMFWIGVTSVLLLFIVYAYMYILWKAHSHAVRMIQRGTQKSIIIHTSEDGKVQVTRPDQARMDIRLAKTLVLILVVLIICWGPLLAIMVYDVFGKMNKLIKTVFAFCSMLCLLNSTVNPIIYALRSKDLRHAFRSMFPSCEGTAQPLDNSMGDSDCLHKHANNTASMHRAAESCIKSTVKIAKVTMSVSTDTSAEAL

Row | Compound | Ki [1] [nM] | Ki [2] [nM]
1 | CCCCC/C=C\C/C=C\C/C=C\C/C=C\CCCC(=O)Nc1ccc(O)cc1 | 1760 | 13000
2 | CCCCC/C=C\C/C=C\C/C=C\C/C=C\CCCC(=O)Nc1cccc(O)c1 | 1560 | 3100
3 | CCCCC/C=C\C/C=C\C/C=C\C/C=C\CCCC(=O)Nc1ccccc1O | 1660 | 2100
4 | CCCCC/C=C\C/C=C\C/C=C\C/C=C\CCCC(=S)NCCO | 1380 | 6300
5 | CCCCC/C=C\C/C=C\C/C=C\C/C=C\CCCC(=O)NCc1ccc(O)cc1 | 217 | 11000
6 | CCCCC/C=C\C/C=C\C/C=C\C/C=C\CCCC(=O)N[C@H](C)CO [METHANANDAMIDE] |  | 815
7 | CCCCC/C=C\C/C=C\C/C=C\C/C=C\CCCC(=O)NC(CO)CO | 363 | 
8 | CCCCC/C=C\C/C=C\C/C=C\C/C=C\CCCC(=O)NCCO [ANANDAMIDE] |  | 1930
9 | CCCCC/C=C\C/C=C\C/C=C\C/C=C\CCCC(=O)NCC(O)CC (stereo not given) | 203 | 
10 | CCCCC/C=C\C/C=C\C/C=C\C/C=C\CCCC(=O)N[C@H]1CCCC[C@@H]1O | > 3000 | 
